The target of one assay is orexin-1 (Homo sapiens (Human), UniProt O43613). The assay can be described thus: Intracellular calcium measurement (FLIPR), CHO cells expressing human orexin-1 receptor, 3 nM orexin-A. It counts as cell-based. Conditions: read-out: IC50 OX1. As to the method:
(§1) In Vitro Assay: Intracellular Calcium Measurements:
(§2) Chinese hamster ovary (CHO) cells expressing the human orexin-1 receptor and the human orexin-2 receptor, respectively, are grown in culture medium (Ham F-12 with L-Glutamine) containing 300 μg/mL G418, 100 U/mL penicillin, 100 μg/mL streptomycin and 10% heat inactivated fetal calf serum (FCS). The cells are seeded at 20,000 cells/well into 384-well black clear bottom sterile plates (Greiner). The seeded plates are incubated overnight at 37° C. in 5% CO2.
(§3) Human orexin-A as an agonist is prepared as 1 mM stock solution in MeOH: water (1:1), diluted in HBSS containing 0.1% bovine serum albumin (BSA), NaHCO3: 0.375 g/L and 20 mM HEPES for use in the assay at a final concentration of 3 nM.
(§4) Antagonists are prepared as 10 mM stock solution in DMSO, then diluted in 384-well plates using DMSO followed by a transfer of the dilutions into in HBSS containing 0.1% bovine serum albumin (BSA), NaHCO3: 0.375 g/L and 20 mM HEPES. On the day of the assay, 50 μL of staining buffer (HBSS containing 1% FCS, 20 mM HEPES, NaHCO3: 0.375 g/L, 5 mM probenecid (Sigma) and 3 μM of the fluorescent calcium indicator fluo-4 AM (1 mM stock solution in DMSO, containing 10% pluronic) is added to each well. The 384-well cell-plates are incubated for 50 min at 37° C. in 5% CO2 followed by equilibration at rt for 30 min before measurement.
(§5) Within the Fluorescent Imaging Plate Reader (FLIPR Tetra, Molecular Devices), antagonists are added to the plate in a volume of 10 μL/well, incubated for 120 min and finally 10 μL/well of agonist is added. Fluorescence is measured for each well at 1 second intervals, and the height of each fluorescence peak is compared to the height of the fluorescence peak induced by 3 nM orexin-A with vehicle in place of antagonist. […] Optimized conditions were achieved by adjustment of pipetting speed and cell splitting regime. The calculated IC50 values may fluctuate depending on the daily cellular assay performance. Fluctuations of this kind are known to those skilled in the art.

A further assay has as its target human orexin-2 receptor (Homo sapiens (Human), UniProt O43614). The assay can be described thus: Intracellular calcium measurement (FLIPR), CHO cells expressing human orexin-2 receptor, 3 nM orexin-A. Type of assay: cell-based. Conditions: read-out: IC50 OX2. As to the method:
as §1, §2, §3, §4, §5

Setting [1] is: CHO cells expressing human orexin-1 receptor, FLIPR, 3 nM orexin-A, geometric mean if determined several times.
Setting [2] is: CHO cells expressing human orexin-2 receptor, FLIPR, 3 nM orexin-A, geometric mean if determined several times.

Where two headings read alike, the source gives them in different places.

The source of these data is patent publication US9493446B2, “Orexin receptor antagonists which are [ortho bi-(hetero-)aryl]-[2-(meta bi-(hetero-)aryl)-pyrrolidin-1-yl]-methanone derivatives” (Actelion Pharmaceuticals Ltd, priority 2012, dated 2016).

Sequence of orexin-1 (O43613 whole entry): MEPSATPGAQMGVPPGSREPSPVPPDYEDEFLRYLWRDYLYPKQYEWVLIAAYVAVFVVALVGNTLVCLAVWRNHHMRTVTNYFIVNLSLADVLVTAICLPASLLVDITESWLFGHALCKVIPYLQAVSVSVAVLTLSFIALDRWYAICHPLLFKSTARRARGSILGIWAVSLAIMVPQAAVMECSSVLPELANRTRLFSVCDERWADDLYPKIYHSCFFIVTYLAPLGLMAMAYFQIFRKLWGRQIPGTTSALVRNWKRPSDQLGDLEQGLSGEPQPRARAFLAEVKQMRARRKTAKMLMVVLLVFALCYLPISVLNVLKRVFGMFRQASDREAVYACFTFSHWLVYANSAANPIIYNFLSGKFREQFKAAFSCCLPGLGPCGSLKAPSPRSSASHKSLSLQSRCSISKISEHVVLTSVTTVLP
Sequence of human orexin-2 receptor (O43614 whole entry): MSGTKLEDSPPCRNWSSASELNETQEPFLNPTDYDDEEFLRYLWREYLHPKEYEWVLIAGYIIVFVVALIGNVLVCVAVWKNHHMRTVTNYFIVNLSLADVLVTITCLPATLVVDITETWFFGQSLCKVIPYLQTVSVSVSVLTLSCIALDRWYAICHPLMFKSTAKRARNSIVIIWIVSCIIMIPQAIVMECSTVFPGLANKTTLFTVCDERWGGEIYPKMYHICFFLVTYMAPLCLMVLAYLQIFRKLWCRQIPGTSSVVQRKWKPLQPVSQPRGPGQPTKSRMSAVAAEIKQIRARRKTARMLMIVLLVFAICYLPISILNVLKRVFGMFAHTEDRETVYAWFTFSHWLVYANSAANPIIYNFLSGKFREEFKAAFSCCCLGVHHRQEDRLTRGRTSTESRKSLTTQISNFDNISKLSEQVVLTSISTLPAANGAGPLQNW

As to `Cc1cccc(-c2scnc2C(=O)N2CCC[C@H]2c2nnc(-c3ccccc3OC(F)(F)F)[nH]2)c1` [compound 485, (5-m-Tolyl-thiazol-4-yl)-{(S)-2-[5-(2-trifluoromethoxy-phenyl)-4H-[1,2,4]triazol-3-yl]-pyrrolidin-1-yl}-methanone], the IC50 on orexin-1 (setting [1]) turned out to be 1.3 µM; at human orexin-2 receptor (setting [2]), 1.23 µM.

In the case of `Cc1ccc(-n2nccn2)c(C(=O)N2CCC[C@H]2c2ncc(-c3cccc(Cl)c3C)[nH]2)c1` [compound 525, {(S)-2-[5-(3-Chloro-2-methyl-phenyl)-1H-imidazol-2-yl]-pyrrolidin-1-yl}-(5-methyl-2-[1,2,3]triazol-2-yl-phenyl)-methanone], the IC50 on orexin-1 (setting [1]) was 0.343 µM; at human orexin-2 receptor (setting [2]) it was 0.088 µM.

For the compound `CCOc1ncccc1-c1noc([C@@H]2CCCN2C(=O)c2cc(F)cc(C)c2-n2nccn2)n1` [compound 225, {(S)-2-[3-(2-Ethoxy-pyridin-3-yl)-[1,2,4]oxadiazol-5-yl]-pyrrolidin-1-yl}-(5-fluoro-3-methyl-2-[1,2,3]triazol-2-yl-phenyl)-methanone], the figures for the IC50 at orexin-1 (setting [1]) and at human orexin-2 receptor (setting [2]) were 0.964 µM and 0.6 µM, respectively.

As for `COc1ccc(-n2nccn2)c(C(=O)N2CCC[C@H]2c2nc(-c3cccc(Cl)c3C)no2)c1` [compound 100], the figures for the IC50 on orexin-1 and at human orexin-2 receptor (setting [2]) were 0.092 µM and 0.008 µM, respectively.

For the compound `COc1cc(C)cc(-c2nc([C@@H]3CCCN3C(=O)c3cc(OC)c(C)cc3-n3nccn3)no2)c1` [compound 385, {(S)-2-[5-(3-Methoxy-5-methyl-phenyl)-[1,2,4]oxadiazol-3-yl]-pyrrolidin-1-yl}-(5-methoxy-4-methyl-2-[1,2,3]triazol-2-yl-phenyl)-methanone], the IC50 is 0.026 µM at orexin-1 (setting [1]) and 0.008 µM at human orexin-2 receptor (setting [2]).

Turning to `COc1cccc(-c2nc([C@@H]3CCCN3C(=O)c3ccc(C)cc3-n3nccn3)no2)c1C` [compound 364, {(S)-2-[5-(3-Methoxy-2-methyl-phenyl)-[1,2,4]oxadiazol-3-yl]-pyrrolidin-1-yl}-(4-methyl-2-[1,2,3]triazol-2-yl-phenyl)-methanone], the IC50 came to 0.265 µM at orexin-1 (setting [1]) and 0.157 µM on human orexin-2 receptor (setting [2]).

As for `Cc1ccc(-n2nccn2)c(C(=O)N2CCC[C@H]2c2nc(-c3cccnc3OC3CCC3)no2)c1` [compound 48, {(S)-2-[3-(2-Cyclobutoxy-pyridin-3-yl)-[1,2,4]oxadiazol-5-yl]-pyrrolidin-1-yl}-(5-methyl-2-[1,2,3]triazol-2-yl-phenyl)-methanone], the IC50 on orexin-1 (setting [1]) came out at 0.045 µM; on human orexin-2 receptor (setting [2]) it was 0.058 µM.

`COc1c(F)cccc1-c1nnc([C@@H]2CCCN2C(=O)c2cc(C)ccc2-n2nccn2)o1` [Example 448, {(S)-2-[5-(3-Fluoro-2-methoxy-phenyl)-[1,3,4]oxadiazol-2-yl]-pyrrolidin-1-yl}-(5-methyl-2-[1,2,3]triazol-2-yl-phenyl)-methanone]: the figures for the IC50 on orexin-1 (setting [1]) and on human orexin-2 receptor (setting [2]) were 0.762 µM and 0.236 µM, respectively.

For the compound `COc1c(F)cccc1-c1noc([C@@H]2CCCN2C(=O)c2ccccc2-n2nccn2)n1` [compound 193, {(S)-2-[3-(3-Fluoro-2-methoxy-phenyl)-[1,2,4]oxadiazol-5-yl]-pyrrolidin-1-yl}-(2-[1,2,3]triazol-2-yl-phenyl)-methanone], the half-maximal inhibitory concentration (IC50) on orexin-1 (setting [1]) came to 0.263 µM; at human orexin-2 receptor (setting [2]), 0.025 µM.

`Cc1ccc(-n2nccn2)c(C(=O)N2CCC[C@H]2c2nnc(-c3ccccc3OC(F)(F)F)s2)c1` [Example 458, (5-Methyl-2-[1,2,3]triazol-2-yl-phenyl)-{(S)-2-[5-(2-trifluoromethoxy-phenyl)-[1,3,4]thiadiazol-2-yl]-pyrrolidin-1-yl}-methanone]: the IC50 was 0.176 µM on orexin-1 (setting [1]) and 0.112 µM on human orexin-2 receptor (setting [2]).

For the compound `O=C(c1cc(Cl)ccc1-n1nccn1)N1CCC[C@H]1c1nc(-c2ccccc2Cl)no1` [compound 236], the IC50 at orexin-1 (setting [1]) turned out to be 1.85 µM; on human orexin-2 receptor, 0.15 µM.

As for `CCOc1ncccc1-c1noc([C@@H]2CCCN2C(=O)c2cc(OC)c(F)cc2-n2nccn2)n1` [compound 223, {(S)-2-[3-(2-Ethoxy-pyridin-3-yl)-[1,2,4]oxadiazol-5-yl]-pyrrolidin-1-yl}-(4-fluoro-5-methoxy-2-[1,2,3]triazol-2-yl-phenyl)-methanone], the IC50 is 0.253 µM on orexin-1 (setting [1]) and 0.017 µM at human orexin-2 receptor (setting [2]).

As to `Cc1ccc(-n2nccn2)c(C(=O)N2CCC[C@H]2c2nc(-c3cc(C)c(C)cn3)no2)c1` [compound 62, {(S)-2-[3-(4,5-Dimethyl-pyridin-2-yl)-[1,2,4]oxadiazol-5-yl]-pyrrolidin-1-yl}-(5-methyl-2-[1,2,3]triazol-2-yl-phenyl)-methanone], the IC50 is > 1.63 µM on orexin-1 (setting [1]) and 0.242 µM at human orexin-2 receptor (setting [2]).

In the case of `COc1cc(-c2noc([C@@H]3CCCN3C(=O)c3cc(C)ccc3-n3nccn3)n2)ccn1` [compound 32, {(S)-2-[3-(2-Methoxy-pyridin-4-yl)-[1,2,4]oxadiazol-5-yl]-pyrrolidin-1-yl}-(5-methyl-2-[1,2,3]triazol-2-yl-phenyl)-methanone], the figures for the IC50 on orexin-1 (setting [1]) and at human orexin-2 receptor (setting [2]) were 2.29 µM and 0.955 µM, respectively.

As for `Cc1ccc(C(=O)N2CCC[C@@]2(C)c2nnc(-c3ccccc3OC(F)(F)F)[nH]2)c(-n2nccn2)c1` [compound 543, (4-Methyl-2-[1,2,3]triazol-2-yl-phenyl)-{(S)-2-methyl-2-[5-(2-trifluoromethoxy-phenyl)-4H-[1,2,4]triazol-3-yl]-pyrrolidin-1-yl}-methanone], the IC50 was 0.01 µM at orexin-1 (setting [1]) and 0.02 µM on human orexin-2 receptor (setting [2]).

Turning to `O=C(c1cccs1)N1CCC[C@H]1c1nc(-c2ccccc2)no1` [Ref 1], the IC50 on orexin-1 (setting [1]) is > 8.5 µM; on human orexin-2 receptor (setting [2]), > 10 µM.

`Cc1cc(C)cc(-c2nnc([C@@H]3CCCN3C(=O)c3cc(C)ccc3-n3nccn3)[nH]2)c1` [Example 511, {(S)-2-[5-(3,5-Dimethyl-phenyl)-4H-[1,2,4]triazol-3-yl]-pyrrolidin-1-yl}-(5-methyl-2-[1,2,3]triazol-2-yl-phenyl)-methanone]: the IC50 at orexin-1 (setting [1]) came to 0.642 µM; on human orexin-2 receptor (setting [2]), 0.113 µM.

On to `Cc1c(Cl)cccc1-c1noc([C@@H]2CCCN2C(=O)c2cc(C#N)ccc2-n2nccn2)n1` [compound 276], for which the IC50 on orexin-1 (setting [1]) is 0.762 µM; at human orexin-2 receptor (setting [2]) it was 0.243 µM.

Turning to “Furan-3-yl-[(S)-2-(3-o-tolyl-[1,2,4]oxadiazol-5-yl)-pyrrolidin-1-yl]-methanone [Reference compound 6, reference compound]”, the IC50 on orexin-1 was 0.021 µM; on human orexin-2 receptor (setting [2]), 0.027 µM.

For `CCOc1c(F)cccc1-c1nnc([C@@H]2CCCN2C(=O)c2cc(C)ccc2-n2nccn2)o1` [Example 449, {(S)-2-[5-(2-Ethoxy-3-fluoro-phenyl)-[1,3,4]oxadiazol-2-yl]-pyrrolidin-1-yl}-(5-methyl-2-[1,2,3]triazol-2-yl-phenyl)-methanone], the IC50 on orexin-1 (setting [1]) amounted to 0.28 µM; at human orexin-2 receptor (setting [2]), 0.236 µM.

Take `COc1ccccc1-c1nnc([C@@H]2CCCN2C(=O)c2cc(C)ccc2-n2nccn2)[nH]1` [Example 464, {(S)-2-[5-(2-Methoxy-phenyl)-4H-[1,2,4]triazol-3-yl]-pyrrolidin-1-yl}-(5-methyl-2-[1,2,3]triazol-2-yl-phenyl)-methanone]: the IC50 came to 0.049 µM on orexin-1 (setting [1]) and 0.124 µM at human orexin-2 receptor (setting [2]).

For the compound `Cc1ccc(C)c(-c2nc([C@@H]3CCCN3C(=O)c3ccc(Cl)cc3-n3nccn3)no2)c1` [compound 399], the figures for the IC50 at orexin-1 and on human orexin-2 receptor (setting [2]) were 0.077 µM and 0.01 µM, respectively.

`COc1cc(C(=O)N2CCC[C@H]2c2nc(-c3ccccc3OC(F)(F)F)no2)c(-n2nccn2)cc1Cl` [compound 281]: the IC50 at orexin-1 (setting [1]) worked out at 0.042 µM; at human orexin-2 receptor (setting [2]) it was 0.017 µM.

On to `O=C(c1cc(Cl)ccc1-n1nccn1)N1CCC[C@H]1c1nc(-c2ccccc2C(F)(F)F)no1` [compound 179], for which the IC50 was determined as 0.371 µM at orexin-1 and 0.189 µM at human orexin-2 receptor (setting [2]).

For `Cc1cc(C(=O)N2CCC[C@H]2c2noc(-c3cccc(C)c3C)n2)c(-n2nccn2)cc1C` [compound 400, {(S)-2-[5-(2,3-Dimethyl-phenyl)-[1,2,4]oxadiazol-3-yl]-pyrrolidin-1-yl}-(4,5-dimethyl-2-[1,2,3]triazol-2-yl-phenyl)-methanone], the IC50 at orexin-1 (setting [1]) was found to be 0.036 µM; at human orexin-2 receptor (setting [2]), 0.004 µM.

As for `COc1cc(C)cc(-c2nc([C@@H]3CCCN3C(=O)c3ccc(C)cc3-n3nccn3)no2)c1` [compound 412, {(S)-2-[5-(3-Methoxy-5-methyl-phenyl)-[1,2,4]oxadiazol-3-yl]-pyrrolidin-1-yl}-(4-methyl-2-[1,2,3]triazol-2-yl-phenyl)-methanone], the figures for the IC50 on orexin-1 (setting [1]) and at human orexin-2 receptor (setting [2]) were 0.109 µM and 0.08 µM, respectively.
